Experimental data published in ChEMBL document CHEMBL1165947, “Synthesis and antitumor activity of 2,5-bis(3'-indolyl)-furans and 3,5-bis(3'-indolyl)-isoxazoles, nortopsentin analogues” (Bioorg Med Chem, 2010).

System: P388
Assay: Cytotoxicity against mouse P388 cells
Type: functional, cell-based

| Compound | IC50 |
| --- | --- |
| Cn1c(-c2cn(C)c3ccccc23)cnc1-c1cn(C)c2cc(Br)ccc12 [N-METHYL NORTOPSENTIN B] | 0.8 µM |
| Brc1ccc2c(-c3c[nH]c(-c4c[nH]c5cc(Br)ccc45)n3)c[nH]c2c1 [NORTOPSENTIN A] | 4.5 µM |
| Brc1ccc2c(-c3nc(-c4c[nH]c5ccccc45)c[nH]3)c[nH]c2c1 [NORTOPSENTIN B] | 4.5 µM |
| Brc1ccc2c(-c3c[nH]c(-c4c[nH]c5ccccc45)n3)c[nH]c2c1 [NORTOPSENTIN C] | 4.5 µM |
